Data on 15 compounds can be found in ChEMBL document CHEMBL3352679, “Structure and evaluation of antibacterial and antitubercular properties of new basic and heterocyclic 3-formylrifamycin SV derivatives obtained via 'click chemistry' approach” (Eur J Med Chem, 2014).

Each structure is given as a SMILES string. Converted amounts (≈) assume the structure as drawn.

This test relates to Mycobacterium tuberculosis variant bovis. The test is described as follows: Antituberculosis activity against Mycobacterium bovis after 14 days by serial microdilution method. As to conditions: 336 h. The format is functional. Background: Broth dilution looks for growth in wells or tubes with falling amounts of substance.
The MIC99 is the lowest concentration that inhibits either 99% of growth or 99% of the strains tested, depending on the study. A high value points to weaker potency. `CO[C@H]1/C=C/O[C@@]2(C)Oc3c(C)c(O)c4c(O)c(c(CNCc5cn(CN6C(=O)c7ccccc7C6=O)nn5)c(O)c4c3C2=O)NC(=O)/C(C)=C\C=C\[C@H](C)[C@H](O)[C@@H](C)[C@@H](O)[C@@H](C)[C@H](OC(C)=O)[C@@H]1C`: the MIC99 is 0.25 µg/mL (≈ 0.259 µM).

Regarding `CCCc1cn(CCN2Cc3c4c(O)c5c(O)c(C)c6c(c5c3O)C(=O)[C@@](C)(O/C=C/[C@H](OC)[C@@H](C)[C@@H](OC(C)=O)[C@H](C)[C@H](O)[C@H](C)[C@@H](O)[C@@H](C)/C=C/C=C(/C)C2=N4)O6)nn1`, the MIC99 was 0.5 µg/mL (≈ 0.591 µM).

Consider `CO[C@H]1/C=C/O[C@@]2(C)Oc3c(C)c(O)c4c(O)c(c(/C=N/N5CCN(C)CC5)c(O)c4c3C2=O)NC(=O)/C(C)=C\C=C\[C@H](C)[C@H](O)[C@@H](C)[C@@H](O)[C@@H](C)[C@H](OC(C)=O)[C@@H]1C` [RIFAMPIN], for which the MIC99 amounted to 0.25 µg/mL (≈ 0.304 µM).

Regarding `CO[C@H]1/C=C/O[C@@]2(C)Oc3c(C)c(O)c4c(O)c(c(CNCCN(C)C)c(O)c4c3C2=O)NC(=O)/C(C)=C\C=C\[C@H](C)[C@H](O)[C@@H](C)[C@@H](O)[C@@H](C)[C@H](OC(C)=O)[C@@H]1C`, the MIC99 was more than 1 µg/mL.

As for `CO[C@H]1/C=C/O[C@@]2(C)Oc3c(C)c(O)c4c(O)c(c(CNCCCN5CCCC5)c(O)c4c3C2=O)NC(=O)/C(C)=C\C=C\[C@H](C)[C@H](O)[C@@H](C)[C@@H](O)[C@@H](C)[C@H](OC(C)=O)[C@@H]1C`, the MIC99 worked out at 1 µg/mL (≈ 1.19 µM).

Take `CO[C@H]1/C=C/O[C@@]2(C)Oc3c(C)c(O)c4c(O)c(c(CNCCN5CCCC5)c(O)c4c3C2=O)NC(=O)/C(C)=C\C=C\[C@H](C)[C@H](O)[C@@H](C)[C@@H](O)[C@@H](C)[C@H](OC(C)=O)[C@@H]1C`: the MIC99 was determined as 1 µg/mL (≈ 1.21 µM).

The compound `CCCCCc1cn(CCCNCc2c3c(O)c4c(O)c(C)c5c(c4c2O)C(=O)[C@@](C)(O/C=C/[C@H](OC)[C@@H](C)[C@@H](OC(C)=O)[C@H](C)[C@H](O)[C@H](C)[C@@H](O)[C@@H](C)/C=C/C=C(/C)C(=O)N3)O5)nn1` gave an MIC99 of 0.5 µg/mL (≈ 0.552 µM).

In turn, `CO[C@H]1/C=C/O[C@@]2(C)Oc3c(C)c(O)c4c(O)c(c(C=O)c(O)c4c3C2=O)NC(=O)/C(C)=C\C=C\[C@H](C)[C@H](O)[C@@H](C)[C@@H](O)[C@@H](C)[C@H](OC(C)=O)[C@@H]1C` yielded an MIC99 of more than 1 µg/mL.

The compound `CO[C@H]1/C=C/O[C@@]2(C)Oc3c(C)c(O)c4c(O)c(c(CNCCCn5ccnc5)c(O)c4c3C2=O)NC(=O)/C(C)=C\C=C\[C@H](C)[C@H](O)[C@@H](C)[C@@H](O)[C@@H](C)[C@H](OC(C)=O)[C@@H]1C` had an MIC99 of 1 µg/mL (≈ 1.2 µM).

`CO[C@H]1/C=C/O[C@@]2(C)Oc3c(C)c(O)c4c(O)c(c(CNCCCN5CCN(CCCNCc6c7c(O)c8c(O)c(C)c9c(c8c6O)C(=O)[C@@](C)(O/C=C/[C@H](OC)[C@@H](C)[C@@H](OC(C)=O)[C@H](C)[C@H](O)[C@H](C)[C@@H](O)[C@@H](C)/C=C/C=C(/C)C(=O)N7)O9)CC5)c(O)c4c3C2=O)NC(=O)/C(C)=C\C=C\[C@H](C)[C@H](O)[C@@H](C)[C@@H](O)[C@@H](C)[C@H](OC(C)=O)[C@@H]1C`: the MIC99 was more than 1 µg/mL.

`CO[C@H]1/C=C\O[C@@]2(C)Oc3c(C)c(O)c4c(O)c(c(CNC5CCN(Cc6ccccc6)CC5)c(O)c4c3C2=O)NC(=O)/C(C)=C\C=C/[C@H](C)[C@H](O)[C@@H](C)[C@@H](O)[C@@H](C)[C@H](OC(C)=O)[C@@H]1C` returned an MIC99 of 0.125 µg/mL (≈ 0.139 µM).

With `CO[C@H]1/C=C/O[C@@]2(C)Oc3c(C)c(O)c4c(O)c(c(CNC5CCN(Cc6ccccc6)CC5)c(O)c4c3C2=O)NC(=O)/C(C)=C\C=C\[C@H](C)[C@H](O)[C@@H](C)[C@@H](O)[C@@H](C)[C@H](OC(C)=O)[C@@H]1C`, the MIC99 is 0.125 µg/mL (≈ 0.139 µM).

Consider `CCCc1cn(CCNCc2c3c(O)c4c(O)c(C)c5c(c4c2O)C(=O)[C@@](C)(O/C=C/[C@H](OC)[C@@H](C)[C@@H](OC(C)=O)[C@H](C)[C@H](O)[C@H](C)[C@@H](O)[C@@H](C)/C=C/C=C(/C)C(=O)N3)O5)nn1`, for which the MIC99 is 1 µg/mL (≈ 1.16 µM).

The compound `CCCCCc1cn(CCCN2Cc3c4c(O)c5c(O)c(C)c6c(c5c3O)C(=O)[C@@](C)(O/C=C/[C@H](OC)[C@@H](C)[C@@H](OC(C)=O)[C@H](C)[C@H](O)[C@H](C)[C@@H](O)[C@@H](C)/C=C/C=C(/C)C2=N4)O6)nn1` yielded an MIC99 of 0.5 µg/mL (≈ 0.563 µM).

The compound `CO[C@H]1/C=C/O[C@@]2(C)Oc3c(C)c(O)c4c(O)c5c(c(O)c4c3C2=O)CN(Cc2cn(CN3C(=O)c4ccccc4C3=O)nn2)C(=N5)/C(C)=C\C=C\[C@H](C)[C@H](O)[C@@H](C)[C@@H](O)[C@@H](C)[C@H](OC(C)=O)[C@@H]1C` showed an MIC99 of 0.5 µg/mL (≈ 0.527 µM).
